Peptide text beside a SMILES is read from it.
How the values were obtained:
[1] = Stability in mouse plasma, peptides 10 uM (Example 15); type: in vitro ADME; details: mouse plasma 37° C., peptide 10 uM; for remaining at 0.25 h, 10 uM / remaining at 0.5 h, 10 uM / remaining at 1 h, 10 uM / remaining at 2 h, 10 uM / remaining at 3 h, 10 uM: pooled mouse plasma; for remaining at 0.25 h, 10 uM: 15 min, read-out: % Remaining at Each Time Point: 15 min; for remaining at 0.5 h, 10 uM: 30 min, read-out: % Remaining at Each Time Point: 30 min; for remaining at 1 h, 10 uM: 60 min, read-out: % Remaining at Each Time Point: 60 min; for remaining at 2 h, 10 uM: 120 min, read-out: % Remaining at Each Time Point: 120 min; for remaining at 3 h, 10 uM: 180 min, read-out: % Remaining at Each Time Point: 180 min
Method: Peptides (10 uM) were incubated in pooled mouse plasma at 37° C. and samples were removed and immediately analyzed for the concentration of intact peptide by LC/MS/MS over the course of 3 hours. The percent of peptide remaining in plasma at each time point was calculated relative to the initial peak area (Table 13).

3T3-L1 Adipocytes = experiment: Free fatty acid levels in cultured mouse 3T3-L1 adipocytes, isoproterenol stimulated (Example 2); type: cell-based; details: test peptides 25 μM; isoproterenol 1 nM
Summary of the method: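 3T3-L1 cells differentiated 12–17 days into adipocytes, then exposed to test peptides at 25 μM final for 18–20 h, then 1 h, then 3 h with isoproterenol (1 nM) at 37 °C. Free fatty acids in the medium measured colorimetrically at 540 nm, corrected for untreated background and expressed relative to isoproterenol-only cells.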

| Molecule | % Remaining at Each Time Point: 0 min [1] | remaining at 0.25 h, 10 uM [1] | remaining at 0.5 h, 10 uM [1] | remaining at 1 h, 10 uM [1] | remaining at 2 h, 10 uM [1] | remaining at 3 h, 10 uM [1] | Free Fatty Acid Levels in 3T3-L1 Adipocytes Expressed as a Percent of Isoproterenol Control: Percent of Control Value (3T3-L1 Adipocytes) |
| --- | --- | --- | --- | --- | --- | --- | --- |
| H-WQEMGYIFYPRKL-OH [compound 269] | 100% | 70% | 45.8% | 17.2% | 2.64% | 0.43% | 59.2% |
| H-RWQEEQYIFEPR-OH [compound 264] | 100% | 76.7% | 68.2% | 54.5% | 59.4% | 56.1% | 63.2% |
| H-RWQEMNYIAYPR-OH [compound 250] | 100% | 63.2% | 54.1% | 35.9% | 20% | 11.7% | 83.0% |
| H-WQEMNYIFYP-OH [compound 285] | 100% | 38.5% | 16.7% | 9.17% | 1.76% | 0.87% | 96.0% |
| H-MRWQEMNYIFYP-OH [compound 282] | 100% | 34.9% | 25.7% | 1.92% | 0.41% | 0.29% | 71.8% |
| H-RWQEEQYIAEPR-OH [compound 266] | 100% | 70.7% | 72.3% | 38.3% | 74.8% | 51.1% | 72.7% |
| H-MRWQEMNYIFYP-NH2 [compound 287] | 100% | 64% | 45.2% | 26.8% | 8.76% | 2.93% | 78.1% |
| H-QEMGYIFYPRKL-OH [compound 270] | 100% | 13.8% | 3.22% | 0.59% | 0.36% | 0.21% | 66.9% |
| H-RWQEEQYIAYPR-OH [compound 265] | 100% | 83.3% | 74.5% | 54.9% | 56% | 51.7% | 66.7% |
| Ac-MRWQEMNYIFYPR-OH [compound 286] | 100% | 88.4% | 74.7% | 57.1% | 36.4% | 25.9% | 94.8% |
| H-RWQEMGYIFYPRKL-OH [compound 268] | 100% | 76.1% | 49.5% | 20.3% | 0.48% | 0% | 41.9% |
| CC[C@H](C)[C@H](NC(=O)[C@H](Cc1ccc(O)cc1)NC(=O)[C@H](CC(N)=O)NC(=O)[C@H](CCSC)NC(=O)[C@H](CCC(=O)O)NC(=O)[C@H](CCC(N)=O)NC(=O)[C@H](Cc1c[nH]c2ccccc12)NC(=O)[C@H](CCCNC(=N)N)NC(=O)[C@@H](C)N)C(=O)N[C@@H](Cc1ccccc1)C(=O)N[C@@H](Cc1ccc(O)cc1)C(=O)N1CCC[C@H]1C(=O)N[C@@H](CCCNC(=N)N)C(=O)O [compound 288] (HELM PEPTIDE1{[dA].R.W.Q.E.M.N.Y.I.F.Y.P.R}$$$$V2.0) | 100% | 90% | 81.9% | 77.4% | 69.2% | 67% | 93.0% |
| H-WQEMNYIFYPR-OH [compound 284] | 100% | 75.3% | 60.1% | 41.1% | 22.1% | 13.7% | 97.1% |
| CC[C@H](C)[C@H](NC(=O)[C@H](Cc1ccc(O)cc1)NC(=O)CNC(=O)[C@H](CCSC)NC(=O)[C@H](CCC(=O)O)NC(=O)[C@H](CCC(N)=O)NC(=O)[C@H](Cc1c[nH]c2ccccc12)NC(=O)[C@H](CCCNC(=N)N)NC(=O)[C@H](CCSC)NC(C)=O)C(=O)N[C@H](C)C(=O)N[C@@H](Cc1ccc(O)cc1)C(=O)N1CCC[C@H]1C(=O)N[C@@H](CCCNC(=N)N)C(=O)N[C@@H](CCCCN)C(=O)N[C@@H](CC(C)C)C(=O)N[C@@H](CCCNC(=N)N)C(N)=O [compound 161] (HELM PEPTIDE1{[ac].M.R.W.Q.E.M.G.Y.I.[dA].Y.P.R.K.L.R.[am]}$$$$V2.0) | – | – | – | – | – | – | 83.7% |
| CC[C@H](C)[C@@H]1NC(=O)[C@H](Cc2ccc(O)cc2)NC(=O)CNC(=O)[C@H](CCSC)NC(=O)[C@@H](NC(=O)[C@H](CCC(N)=O)NC(=O)[C@H](Cc2c[nH]c3ccccc23)NC(=O)[C@H](CCCNC(=N)N)NC(=O)[C@H](CCSC)NC(C)=O)CCC(=O)NCCCC[C@@H](C(=O)N[C@@H](CC(C)C)C(=O)N[C@@H](CCCNC(=N)N)C(N)=O)NC(=O)[C@H](CCCNC(=N)N)NC(=O)[C@@H]2CCCN2C(=O)[C@H](Cc2ccc(O)cc2)NC(=O)[C@H](Cc2ccccc2)NC1=O [compound 227] (HELM PEPTIDE1{[ac].M.R.W.Q.E.M.G.Y.I.F.Y.P.R.K.L.R.[am]}$PEPTIDE1,PEPTIDE1,6:R3-15:R3$$$V2.0) | – | – | – | – | – | – | 24.5% |
| CC[C@H](C)[C@H](NC(=O)[C@H](Cc1ccc(O)cc1)NC(=O)CNC(=O)[C@H](CCC(=O)O)NC(=O)[C@H](CCC(=O)O)NC(=O)[C@H](CCC(N)=O)NC(=O)[C@H](Cc1c[nH]c2ccccc12)NC(=O)[C@H](CCCNC(=N)N)NC(=O)[C@@H](C)N)C(=O)N[C@@H](Cc1ccccc1)C(=O)N[C@@H](Cc1ccc(O)cc1)C(=O)N1CCC[C@H]1C(=O)N[C@@H](CCCNC(=N)N)C(=O)N[C@@H](CCCCN)C(=O)N[C@@H](CC(C)C)C(=O)N[C@@H](C)C(=O)O [compound 230] (HELM PEPTIDE1{[dA].R.W.Q.E.E.G.Y.I.F.Y.P.R.K.L.A}$$$$V2.0) | – | – | – | – | – | – | 94.5% |
| H-MRWQEMGYIF-OH [compound 50] | – | – | – | – | – | – | 97.4% |
| CC[C@H](C)[C@H](NC(=O)[C@H](Cc1ccc(O)cc1)NC(=O)CNC(=O)[C@H](CCSC)NC(=O)[C@H](CCC(=O)O)NC(=O)[C@@H](C)NC(=O)[C@H](Cc1c[nH]c2ccccc12)NC(=O)[C@H](CCCNC(=N)N)NC(=O)[C@H](CCSC)NC(C)=O)C(=O)N[C@@H](Cc1ccccc1)C(=O)N[C@@H](Cc1ccc(O)cc1)C(=O)N1CCC[C@H]1C(=O)N[C@@H](CCCNC(=N)N)C(=O)N[C@@H](CCCCN)C(=O)N[C@@H](CC(C)C)C(=O)N[C@@H](CCCNC(=N)N)C(N)=O [compound 155] (HELM PEPTIDE1{[ac].M.R.W.[dA].E.M.G.Y.I.F.Y.P.R.K.L.R.[am]}$$$$V2.0) | – | – | – | – | – | – | 90.1% |
| Ac-MRWQEMGYEFYPRKLR-NH2 [compound 190] | – | – | – | – | – | – | 95.0% |
| H-MREQEMGYIFYPRKLR-OH [compound 170] | – | – | – | – | – | – | 48.0% |
| H-MRWQEMGYIFYPKKLR-OH [compound 123] | – | – | – | – | – | – | 58.8% |
| CC[C@H](C)[C@H](NC(=O)[C@H](Cc1ccc(O)cc1)NC(=O)CNC(=O)[C@H](CCSC)NC(=O)[C@H](CCC(=O)O)NC(=O)[C@H](CCC(N)=O)NC(=O)[C@@H](C)NC(=O)[C@H](CCCNC(=N)N)NC(=O)[C@@H](N)CCSC)C(=O)N[C@@H](Cc1ccccc1)C(=O)N[C@@H](Cc1ccc(O)cc1)C(=O)N1CCC[C@H]1C(=O)N[C@@H](CCCNC(=N)N)C(=O)N[C@@H](CCCCN)C(=O)N[C@@H](CC(C)C)C(=O)N[C@@H](CCCNC(=N)N)C(=O)O [compound 138] (HELM PEPTIDE1{M.R.[dA].Q.E.M.G.Y.I.F.Y.P.R.K.L.R}$$$$V2.0) | – | – | – | – | – | – | 71.5% |
